The source of these data is patent US20100022541A1, “Chemical inhibitors of bacterial heptose synthesis, methods for their preparation and biological applications of said inhibitors” (priority 2006, published 2010).

Each structure is given as a SMILES string.

T1 sequence (P76658 whole entry): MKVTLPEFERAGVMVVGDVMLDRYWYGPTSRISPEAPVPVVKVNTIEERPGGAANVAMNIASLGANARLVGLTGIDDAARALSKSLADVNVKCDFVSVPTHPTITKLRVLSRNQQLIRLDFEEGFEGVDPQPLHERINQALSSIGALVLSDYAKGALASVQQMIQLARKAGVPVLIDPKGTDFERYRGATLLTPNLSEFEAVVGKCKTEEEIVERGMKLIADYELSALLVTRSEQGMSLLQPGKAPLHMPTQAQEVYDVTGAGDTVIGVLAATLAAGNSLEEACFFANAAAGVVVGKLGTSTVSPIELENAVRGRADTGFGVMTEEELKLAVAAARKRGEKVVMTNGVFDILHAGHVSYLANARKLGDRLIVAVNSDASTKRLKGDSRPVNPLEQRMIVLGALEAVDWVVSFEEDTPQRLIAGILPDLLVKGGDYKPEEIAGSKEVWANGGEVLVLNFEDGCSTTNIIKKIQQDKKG

This assay has as its target T1, RfaE (Escherichia coli, UniProt P76658).
T1 construct: made in house; host or cells: E. coli
Description: Inhibition of the enzymatic activity of RfaE (HTS luminescent or fluorescent biochemical assay). The following applies: inhibitor tested at 6 to 10 concentrations; 30 min pre-incubation at room temperature. Also noted: species or system E. coli. On the procedure: According to another object, the invention also relates to a method for assessing RfaE enzymatic activity. • Said method comprises • pre-incubating at room temperature • DMSO or inhibitor to be tested dissolved in DMSO and RfaE in an assay buffer • and either • adding a reaction mixture composed of RfaE, β-heptose-7-phosphate, ATP, in the assay buffer and incubating at room temperature • adding a revelation mixture composed of luciferase, D-luciferin and N-acetylcysteamine • measuring the luminescence intensity and converting into inhibition % to further calculate the IC50 values; • or • adding a reaction mixture composed of RfaE, β-heptose-7-phosphate ATP, pyruvate kinase, phosphoenolpyruvate, lactate dehydrogenase and NADH in said assay buffer, • measuring the fluorescence intensity of NADH kinetically and deriving inhibition % from fitted initial velocities, to further calculate the IC50 values.
Inhibition of the Enzymatic Activity of RfaE
RfaE is a kinase belonging to the ribokinase family. It catalyses an essential step of the biosynthesis of L-ADP-Heptose, namely the phosphorylation of β-heptose-7-phosphate (H7P) into β-heptose-1,7-bisphosphate (H17P). RfaE assays as described in the literature are essentially based on direct HLPC detection of the substrates H7P and ATP, and of the products H17P and ADP, raising obvious limitations for HTS applications. The assays described below are based either on luminescent ATP detection, or on fluorescent ADP detection. They are easily amenable to miniaturized formats and fast readouts as required by HTS.
The assay buffer “AB” contains 50 mM Hepes pH7.5, 1 mM MnCl2, 25 mM KCl, 0.012% Triton-X100 and 1 mM DTT. The following components are added in a white polystyrene Costar plate up to a final volume of 31 μL: 3 μL DMSO, or inhibitor dissolved in DMSO and 28 μL RfaE in AB. After 30 min of pre-incubation at room temperature, 29 μL of Substrates mix in AB are added in each well to a final volume of 60 μL. This reaction mixture is then composed of 3 nM RfaE (produced in house from E. coli), 0.2 μM β-heptose-7-phosphate (in house synthesis) and 0.2 μM ATP (Sigma) in assay buffer. After 40 min of incubation at room temperature, 200 μL of the revelation mix are added to a final volume of 260 μL, including the following constituents at the respective final concentrations: 2 nM luciferase (Sigma), 30 μM D-luciferin (Sigma), 100 μM N-acetylcysteamine (Aldrich). Luminescence intensity is immediately measured on an Analyst-HT (Molecular Devices) and converted into inhibition percentages. For IC50 determinations, the inhibitor is tested at 6 to 10 different concentrations, and the related inhibitions are fitted to a classical langmuir equilibrium model using XLFIT (IDBS).
The assay buffer “AB” contains 50 mM Hepes pH7.5, 1 mM MnCl2, 25 mM KCl, 0.012% Triton-X100 and 1 mM DTT. The following components are added in a black polystyrene Costar plate up to a final volume of 50 μL: 5 μL DMSO, or inhibitor dissolved in DMSO and 45 μL RfaE in AB. After 30 min of pre-incubation at room temperature, 50 μL of Substrates-revelation mix in AB are added in each well to a final volume of 100 μL. This reaction mixture is then composed of 66 μM RfaE (produced in house from E. coli), 1 μM β-heptose-7-phosphate (in house synthesis), 50 μM ATP (Sigma), 5 u/mL Pyruvate Kinase (Sigma), 50 μM phosphoenolpyruvate (Sigma), 5 u/mL Lactate dehydrogenase (Sigma) and 2.5 μM NADH (Sigma) in assay buffer. Fluorescence intensity of NADH (λex=360 nm, λem=520 nm) is immediately measured kinetically by a Fluostar Optima (BMG). Inhibition percentages are derived from fitted initial velocities. For IC50 determinations, the inhibitor is tested at 6 to 10 different concentrations, and the related inhibitions are fitted to a classical langmuir equilibrium model using XLFIT (IDBS).
By IC50 is commonly meant the concentration needed to halve the response being measured. Read a low IC50 as higher potency. Take `Cc1oc(-c2ccc(O)cc2)nc1C(=O)N(CC(=O)O)Cc1ccccn1` [XXIV, [{[2-(4-hydroxyphenyl)-5-methyl-1,3-oxazol-4-yl]carbonyl}(pyridin-2-ylmethyl)amino]acetic Acid]: the IC50 is 39 µM.

Compound `Cc1nc(-c2ccccc2)oc1C(=O)N(CC(=O)O)Cc1ccc(-c2ccccc2F)o1` [XXXII, ([(4-methyl-2-phenyl-1,3-oxazol-5-yl)carbonyl]{[5-(2-fluorophenyl)-2-furyl]methyl}amino)acetic Acid] displayed an IC50 of 125 µM.

In turn, `Cc1oc(-c2ccccc2Br)nc1C(=O)N(CC(=O)O)Cc1ccccn1` [XIX, [{[2-(2-bromophenyl)-5-methyl-1,3-oxazol-4-yl]carbonyl}(pyridin-2-ylmethyl)amino]acetic Acid] had an IC50 of 44 µM.

For the compound `Cc1oc(-c2ccc(C(F)(F)F)cc2)nc1C(=O)N(CC(=O)O)Cc1ccccn1` [XVI, [({5-methyl-2-[4-(trifluoromethyl)phenyl]-1,3-oxazol-4-yl}carbonyl)(pyridin-2-ylmethyl)amino]acetic Acid], half-maximal inhibition (IC50) was put at 142 µM.

With `Cc1oc(-c2cccc(NC(=O)C3CC3)c2)nc1C(=O)N(CC(=O)O)Cc1ccccn1` [XXVIII, {[(2-{3-[(cyclopropylcarbonyl)amino]phenyl}-5-methyl-1,3-oxazol-4-yl)carbonyl](pyridin-2-ylmethyl)amino}acetic Acid], 14 µM corresponded to half-maximal inhibition (IC50).

In turn, `O=C(O)CN(Cc1ccccn1)C(=O)c1nc(-c2ccccc2)oc1COCc1ccccc1` [I, {[[5-(benzyloxy)methyl-2-phenyl-1,3-oxazol-4-yl]carbonyl](pyridin-2-ylmethyl)amino}acetic Acid] yielded an IC50 of 265 µM.

As to `Cc1nc(-c2ccc3[nH]ccc3c2)sc1C(=O)N(CC(=O)O)Cc1nc2ccccc2s1` [XXXVIII, ((1,3-benzothiazol-2-ylmethyl){[2-(1H-indol-5-yl)-4-methyl-1,3-thiazol-5-yl]carbonyl}amino)acetic Acid], the IC50 was 0.33 µM.

In turn, `Cc1oc(-c2ccccc2)nc1C(=O)N(CC(=O)O)Nc1ccccn1` [XXXI, {1-[(5-methyl-2-phenyl-1,3-oxazol-4-yl)carbonyl]-2-pyridin-2-ylhydrazino}acetic Acid] showed an IC50 of 65 µM.

`Cc1oc(-c2ccccc2N)nc1C(=O)N(CC(=O)O)Cc1ccccn1` [XXVI, [{[2-(2-aminophenyl)-5-methyl-1,3-oxazol-4-yl]carbonyl}(pyridin-2-ylmethyl)amino]acetic Acid] registered an IC50 of 31 µM.

Consider `COc1cccc(-c2nc(C(=O)N(CC(=O)O)Cc3ccccn3)c(C)o2)c1` [Example XX, [{[2-(3-methoxyphenyl)-5-methyl-1,3-oxazol-4-yl]carbonyl}(pyridin-2-ylmethyl)amino]acetic Acid], for which the IC50 worked out at 15 µM.

Turning to `Cc1nc(-c2ccc(N)c([N+](=O)[O-])c2)sc1C(=O)N(CC(=O)O)Cc1ccccn1` [XXXVII, [{[2-(4-amino-3-nitrophenyl)-4-methyl-1,3-thiazol-5-yl]carbonyl}(pyridin-2-ylmethyl)amino]acetic Acid], 12.9 µM corresponded to half-maximal inhibition (IC50).

Take `Cc1oc(-c2cccc(O)c2)nc1C(=O)N(CC(=O)O)Cc1ccccn1` [XXV, [{[2-(3-hydroxyphenyl)-5-methyl-1,3-oxazol-4-yl]carbonyl}(pyridin-2-ylmethyl)amino]acetic Acid]: half-maximal inhibition (IC50) was put at 50 µM.

`CC(=O)Oc1cccc(-c2nc(C)c(C(=O)N(CC(=O)O)Cc3ccccn3)o2)c1` [IV, [({2-[3-(acetyloxy)phenyl]-4-methyl-1,3-oxazol-5-yl}carbonyl)(pyridin-2-ylmethyl)amino]acetic Acid] returned an IC50 of 52 µM.
